Data reported in US20250361485A1, “MODIFIED CD4+ T CELLS EXPRESSING IL-37 AND METHODS OF USE THEREOF” (The Regents of the University of Colorado, A Body Corporate, priority 2022, published 2025).

Legend:
Format in all cases: cell-based
FOXP3 [1] = experiment: siRNA knockdown in primary human T cells, FOXP3 and marker expression; details: siRNA 48 h prior
Protocol: Purified primary human CD4+ T cells were used for siRNA knockdown of RUNX1, RPTOR, IL37, CREB1, CHK1, NLRP2, NLRP3, NLRP4, ASC, and NLRC4, and CD4+CD25+CD127^dim T cells for siRNA knockdown of FOXP3 and IL37. Cells were purified from healthy donor PBMCs as described above and then placed in culture in complete RPMI 1640 for at least 2 h prior to siRNA transfection via nucleofection using the Amaxa P3 Primary Cell 4D-Nucleofector X Kit L (Lonza) following the manufacturer's instructions. For the knockdown of RPTOR and IL-37, three different siRNAs (30 nM) against RPTOR and IL-37: A, B, and C (OriGene, Rockville, MD) were used separately or pooled, whereas for FOXP3 knockdown, only the pool of three different siRNAs (30 nM) against FOXP3: A, B, and C (OriGene) was used due to a limited number CD4+CD25+CD127^dim T cells. For the knockdown of NLRP3A, three to four siRNAs were pooled together, and for NLRC4 and NLRP4, Dharmacon SMARTpool was used. Single-sense and anti-sense siRNAs were used for NLRP2 and ASC (Ambion). Scrambled siRNA (OriGene, Ambion, and Dharmacon) was used as a control. Knockdowns were confirmed 24 hours after nucleofection by qRT-PCR or 48 hours later by western blot, and the relative density of the protein bands was determined using FIJI. […]

caspase-1 = experiment: Caspase-1 inhibition in human Treg / CD4+ T cells; details: 50 μM
Protocol: For proximity ligation assay (PLA) experiments, after primary antibodies were washed out, cells were incubated for 1 h at 37° C. with an anti-rabbit PLUS probe (1:5 dilution; Duo92002; Sigma-Aldrich) anti-mouse MINUS probe (1:5 dilution; Duo92004; Sigma-Aldrich) and were washed two times with wash buffer A. Probes were then ligated for 30 min at 37° C. and washed two times in Buffer A and were amplified for 100 min at 37° C. in the dark with polymerase (Sigma-Aldrich). For flow-based PLA (Sigma-Aldrich), after amplification, cells were treated with 1× green detection buffer for 30 min at 37° C., then washed 2× with PLA wash buffer and prepared for flow analysis. After 2 washes with 1× Buffer B (Thermo Fisher), each well was added with ProLong™ Gold antifade reagent (Thermo Fisher) containing DAPI nuclear stain. Images were obtained with an Olympus FV1000 FCS/RICS system (Olympus, Tokyo, Japan). For analysis, 7 different 100×/1.4 Oil Plan-Apochromatic objective fields of view were imaged per well per experiment. Each field was measured for IL-37 fluorescence intensity using the FIJI measurement application. To analyze the cytoplasmic vs. nuclear localization of IL-37 within the T cells, DAPI and IL-37 overlapped images was used. Along with single-slice full field images, […] slice z-stack images were taken to confirm cytoplasmic vs. nuclear localization of IL-37. Colocalization of IL-37 and DAPI was assessed by Pearson's correlation coefficient using FIJI. Line intensity profiles were created using a Plot profile in FIJI to measure differences in fluorescence across a cell by drawing a line spanning the diameter of the cell, and then the staining intensity measurements across the line were then entered into Prism 8 (GraphPad, Lo Jolla, CA). 3D fluorescent maps were created using a Surface plot in FIJI.
Purified lymphocytes from either humans or mice were washed with FACS buffer (5% BSA (Sigma-Aldrich) and 1×PBS), and then prepared for surface or intracellular staining, as described (Osborne and Wetzel, 2012). For surface staining, 1 μg or the manufacturer-recommended amounts of fluorescently conjugated antibody specific to the surface marker to be visualized was added to 1×10^6 cells resuspended in 100 μl of FACS buffer for 30 min at 4° C., then washed 2× with FACS buffer prior to being either analyzed or further processed. […] For measuring proliferation, cells were stained with 5-μM CFSE (Molecular Probes, Eugene, OR) prior to cell culture and analyzed using flow cytometry. […]

FOXP3 [2] = experiment: FOXP3 expression in human Treg / CD4+ T cells treated with SMAD3 inhibitors; details: for FOXP3 mRNA expression: purified human Treg cells
Description: p-SMAD3 […]/425 is recognized for its involvement in TGFβ signaling. […] Given the essential role of SMAD3 phosphorylation in nuclear localization and transcriptional activity controlling other genes, the phosphorylation status and its association with IL-37 in human Treg cells was examined (FIG. 24A). Inhibitors of […]/425 sites (SIS3) and […]/[…] sites (flavopiridol) were utilized to determine if they could decrease FOXP3 mRNA expression and disrupt the SMAD3/IL-37 interaction. […] These findings also point to a crucial interplay between p-SMAD3 […] and IL-37 in orchestrating the transcriptional regulation of FOXP3 in human Treg cells.

p-SMAD3 S208 = experiment: Immunoblotting of cytoplasmic and nuclear proteins of human Treg cells after flavopiridol; details: immunoblot
Protocol: For immunoblot analysis, cells were lysed in RIPA buffer (50 mM Tris-HCL pH 7.4, 150 mM NaCl, 1 mM PMSF, 1 mM EDTA, 5 μg/ml Aprotinin, […] Leupeptin, 1% Triton x-100, 1% Sodium deoxycholate, 0.1% SDS) (Sigma-Aldrich). For IP of Smad3, cells were lysed in Pierce® IP Lysis Buffer (Thermo) and prepared using the Thermo Immunoprecipitation containing Dynabeads™ Protein G kit according to the manufacturer's instructions. The Smad3 IP was performed using the rabbit monoclonal antibody against Smad3 (C67H9) (Thermo). Hsp90 IP using mouse monoclonal antibody against Hsp90 (610418) (BD Biosciences). 20 μg of sample was run on a 4-15% Mini-Protean TGX precast gel (Bio-Rad) and then transferred overnight at 4° C. and 30 V to a PVDF membrane using a Bio-Rad Trans-Blot® transfer cell. Following 1 h of blocking with blocking buffer (5% milk/Tween 20 in TBS), membranes were incubated with primary antibody overnight at 4° C. For siRNA knockdown blots, mouse β-actin monoclonal antibody (Sigma-Aldrich) at a dilution of 1:10,000 was used for the loading control. For Smad3 IP, rabbit anti-human IL-37 (IL-1F7) polyclonal antibody (Invitrogen, Thermo) at a dilution of 1:1000 was used to detect IL37. HRP-conjugated anti-rabbit (1:5000) and anti-mouse IgG (1:5000) were purchased from Sigma-Aldrich. The SuperSignal West Pico Kit (Thermo Fisher) was used according to the manufacturer's instructions for the chemiluminescent detection of the proteins. Protein expression was further analyzed by measuring the relative densities using FIJI (National Institutes of Health: http://rsb.info.nih.gov/ij/) or LI-COR Image Studio™ Software.
Therefore, cytoplasmic and nuclear proteins of primary human Treg cells was scrutinized following flavopiridol treatment to ascertain if p-SMAD3 S208 is essential for the nuclear localization of SMAD3 and IL-37.

human Treg cells = experiment: CD25+FOXP3+ frequency in human Treg cells cultured with IL-6; details: anti-TCR/CD28, IL-6 20 ng/ml
Protocol: Purified lymphocytes from either humans or mice were washed with FACS buffer (5% BSA (Sigma-Aldrich) and 1×PBS), and then prepared for surface or intracellular staining, as described (Osborne and Wetzel, 2012). For surface staining, 1 μg or the manufacturer-recommended amounts of fluorescently conjugated antibody specific to the surface marker to be visualized was added to 1×10^6 cells resuspended in 100 μl of FACS buffer for 30 min at 4° C., then washed 2× with FACS buffer prior to being either analyzed or further processed. For intracellular cytokine staining (ICS), the FOXP3 Cytoperm/Cytofix staining kit (BD Pharmingen, San Diego, CA) was used after cells were stimulated for 24 h on 1 μg/ml anti-CD3-coated plates with soluble 1 μg/ml anti-CD28 antibody or anti-CD3/CD28 conjugated Dynabeads™ (Gibco, Thermo Fisher). For measuring proliferation, cells were stained with 5-μM CFSE (Molecular Probes, Eugene, OR) prior to cell culture and analyzed using flow cytometry. Flow-based measurement of caspase-1 activation was done using the FAM-FLICA® Caspase-1 Assay kit #98 following the manufacturer's instructions (ImmunoChemistry Tech, Bloomington, MN). […] All acquisitions were performed on a Galios® or Galios® 561 cytometer equipped with Kaluza software (Beckman-Coulter, Indianapolis, IN), and all data were analyzed with FlowJo_V10 software (Tree Star, Ashland, OR).

## RUNX1: siRNA against RUNX1 (Ambion), SEQ ID NO: 34-35 (chain 1 AGAACCAGGUUGCAAGAUU; chain 2 AAUCUUGCAACCUGGUUCU; listed as RNA, chemistry not given here)
FOXP3 [1]
  frequency of FOXP3+ T cells in CD4+ T cells after knockdown: significant decline

## CREB1: siRNA against CREB1 (Ambion), SEQ ID NO: 8-9 (chain 1 CCGUAACUCUAGUACAGCU; chain 2 AGCUGUACUAGAGUUACGG; listed as RNA, chemistry not given here)
FOXP3 [1]
  frequency of FOXP3+ T cells in CD4+ T cells after knockdown: significant decline

## Ac-YVAD-CMK
caspase-1; human CD4+ T cells
  FOXP3 mRNA and protein expression: reduction
caspase-1; human Treg cells
  decrease of interaction between IL-37 and p-SMAD3 S208: 36.5%
caspase-1; human Treg cells, 24 h
  IL-37 subcellular localization: shift of IL-37 localization from the nucleus to the perinuclear region of the cytoplasm
caspase-1; human Treg cells, 48 h
  IL-37 expression: without alteration

## COc1cc2c(cc1OC)CN(C(=O)/C=C/c1c(-c3ccccc3)n(C)c3ncccc13)CC2 [SIS3]
FOXP3 [2]; primary human CD4+ T cells
  FOXP3 protein expression: did not significantly decrease
FOXP3 [2]
  FOXP3 mRNA expression: did not significantly alter

## CN1CC[C@H](c2c(O)cc(O)c3c(=O)cc(-c4ccccc4Cl)oc23)[C@H](O)C1 [flavopiridol]
p-SMAD3 S208
  expression of IL-37 in the nucleus: abolished
  nuclear SMAD3 levels: lowered
  nuclear levels of FOXP3: reduced
  p-SMAD3 S208: diminished
FOXP3 [2]; primary human CD4+ T cells, not rescued by TGF-β
  FOXP3 protein expression, fold decrease compared to control cells: ~2 fold
FOXP3 [2]
  FOXP3 mRNA expression: almost completely obliterated

## IL-6: IL-6 (Peprotech), 20 ng/ml, added as inflammatory stimulus to Treg cultures
Human Treg cells; gated IL37hi human Treg cells
  decrease in frequency of CD25+FOXP3+ cells: no such reduction
Human Treg cells; gated IL-37lo human Treg cells
  decrease in frequency of CD25+FOXP3+ cells: 34%
